Among the data in PMC12080387, “Integrated thermal proteome and thermal proximity co-aggregation profiling identifies ATP6V1C1 as a novel anti-cancer drug target” (International Journal of Biological Sciences, 2025) are Kd values, retold here.

Structures are written as SMILES.

This test has as its target T1, ATP6V1C1 (Homo sapiens, UniProt P21283).
T1 construct: human wild-type ATP6V1C1, N-terminal 6xHis tag, modified pET30a, expressed in E. coli BL21 (DE3)
In words: ITC with purified recombinant protein; supported by CETSA/ITDRF (half-maximal destabilization […]) and TPP. It is filed as binding.

T1 sequence (P21283 2-382): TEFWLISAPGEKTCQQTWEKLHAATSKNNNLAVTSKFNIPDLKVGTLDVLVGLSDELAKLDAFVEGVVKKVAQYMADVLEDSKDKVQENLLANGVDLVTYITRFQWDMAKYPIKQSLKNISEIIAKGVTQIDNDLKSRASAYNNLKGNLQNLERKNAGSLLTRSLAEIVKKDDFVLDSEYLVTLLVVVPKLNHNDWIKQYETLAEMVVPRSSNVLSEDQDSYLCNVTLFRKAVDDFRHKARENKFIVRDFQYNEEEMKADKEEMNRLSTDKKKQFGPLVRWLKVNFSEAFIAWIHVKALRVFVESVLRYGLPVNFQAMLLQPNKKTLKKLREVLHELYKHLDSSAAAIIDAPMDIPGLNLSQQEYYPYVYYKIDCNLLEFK

Take `Cc1c([C@H](C)[C@@H]2NC[C@@H](C)C[C@H]2O)ccc2c1C[C@H]1[C@H]2CC=C2C[C@@H](O)CC[C@@]21C` [VAM, veratramine]: the Kd (in general, the equilibrium constant for the complex coming apart) was 1170 nM.
